One assay deals with T1, PKC delta (Homo sapiens, UniProt Q05655).
T1 construct: purchased Invitrogen
As to the kind of experiment: PKC delta Assay (384-well time resolved fluorescence, IMAP TR-FRET). It counts as biochemical. The note with it: selectivity for PKC-theta over PKC-delta. Summed up:
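Phosphorylation of a Fam-labeled S6-derived peptide (200 nM) at 10 μM ATP by 1.5 nM kinase ran 2 hours at room temperature in HEPES pH 7.6 buffer containing MgCl2, DTT, Triton X-100, BSA and EDTA. Detection used IMAP progressive binding with Tb donor TR-FRET after overnight incubation.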

For the next assay, the target named is T2, His-PKC-theta (Homo sapiens, UniProt Q04759).
T2 construct: His; purchased Invitrogen
As to the kind of experiment: PKC-theta Assay (384-well time resolved fluorescence, IMAP TR-FRET). It counts as biochemical. The note with it: read-out: Act. Level (IC50 in the PKC-theta Assay). The essentials: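 Enzyme at 142 pM phosphorylated 200 nM Fam-S6 peptide with 10 μM ATP in 50 mM HEPES pH 7.6, 10 mM MgCl2, 1 mM DTT for 2 h at room temperature. Product was detected after overnight incubation with IMAP binding reagent and Tb donor by time-resolved FRET.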
A general note: Time-resolved FRET reads energy transfer from a long-lived donor to a nearby acceptor.

T2 sequence (Q04759 whole entry): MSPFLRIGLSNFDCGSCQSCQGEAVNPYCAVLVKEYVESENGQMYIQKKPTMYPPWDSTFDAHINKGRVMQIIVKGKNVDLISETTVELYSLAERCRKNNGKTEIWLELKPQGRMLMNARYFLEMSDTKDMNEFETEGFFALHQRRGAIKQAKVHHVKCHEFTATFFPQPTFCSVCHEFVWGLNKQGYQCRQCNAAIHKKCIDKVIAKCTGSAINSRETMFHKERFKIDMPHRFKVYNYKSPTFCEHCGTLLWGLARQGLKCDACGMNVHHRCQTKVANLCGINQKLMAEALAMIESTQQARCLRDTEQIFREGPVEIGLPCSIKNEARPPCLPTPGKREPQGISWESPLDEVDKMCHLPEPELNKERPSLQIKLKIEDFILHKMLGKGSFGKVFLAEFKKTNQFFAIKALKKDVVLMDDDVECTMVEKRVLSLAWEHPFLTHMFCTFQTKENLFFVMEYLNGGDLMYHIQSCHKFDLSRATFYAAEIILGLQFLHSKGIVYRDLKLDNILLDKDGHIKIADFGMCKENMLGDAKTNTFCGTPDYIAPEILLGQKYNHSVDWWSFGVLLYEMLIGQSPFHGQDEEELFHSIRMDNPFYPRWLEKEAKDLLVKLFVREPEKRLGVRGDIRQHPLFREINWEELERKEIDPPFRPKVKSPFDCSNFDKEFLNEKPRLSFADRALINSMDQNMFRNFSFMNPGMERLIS
T1 sequence (Q05655 whole entry): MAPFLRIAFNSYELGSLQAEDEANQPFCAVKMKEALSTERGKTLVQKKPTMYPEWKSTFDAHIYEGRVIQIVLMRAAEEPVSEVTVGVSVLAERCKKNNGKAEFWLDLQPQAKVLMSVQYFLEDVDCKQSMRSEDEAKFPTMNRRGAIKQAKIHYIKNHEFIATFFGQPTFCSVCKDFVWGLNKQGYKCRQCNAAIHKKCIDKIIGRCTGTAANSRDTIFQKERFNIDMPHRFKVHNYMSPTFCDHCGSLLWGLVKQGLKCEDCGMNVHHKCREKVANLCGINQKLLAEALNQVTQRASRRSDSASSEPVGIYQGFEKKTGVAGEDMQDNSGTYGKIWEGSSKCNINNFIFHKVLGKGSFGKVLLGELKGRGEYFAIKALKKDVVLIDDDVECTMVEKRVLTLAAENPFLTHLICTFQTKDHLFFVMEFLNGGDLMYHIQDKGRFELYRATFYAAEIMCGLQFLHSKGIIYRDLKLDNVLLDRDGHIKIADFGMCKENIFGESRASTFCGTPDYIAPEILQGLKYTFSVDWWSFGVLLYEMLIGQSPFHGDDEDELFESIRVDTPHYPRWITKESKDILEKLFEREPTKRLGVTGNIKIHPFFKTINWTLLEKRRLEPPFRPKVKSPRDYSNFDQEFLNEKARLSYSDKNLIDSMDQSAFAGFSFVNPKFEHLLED

On to `CC1(C)[C@@H](O)C[C@H]1Nc1nc(NCCc2ccn[nH]2)ncc1C#N` [Cmpd 245], for which the “Sel. Level (ratio of IC50 PKC-delta/IC50 PKC-theta)” value at PKC delta is “G (selectivity between 5- and 20-fold (selectivity level G))”. For the same molecule, the IC50 – broadly, the concentration that inhibits the measured activity by half – at His-PKC-theta is 800 to 2000 nM.
With `CC1(C)[C@@H](Nc2nc(NCCC3C(=O)Nc4cc(F)ccc43)ncc2C#N)CCC[C@@H]1O` (some centres unmarked) [Cmpd 309], the “Sel. Level (ratio of IC50 PKC-delta/IC50 PKC-theta)” value on PKC delta was “G (selectivity between 5- and 20-fold (selectivity level G))”. Further, the IC50 on His-PKC-theta was 800 to 2000 nM.
On to `N#Cc1cnc(NCCc2c[nH]c3ccccc23)nc1N[C@H]1C[C@@H](C(N)=O)C1` [Cmpd 290], for which, at PKC delta, the “Sel. Level (ratio of IC50 PKC-delta/IC50 PKC-theta)” value is “F (selectivity of between 20- and 100-fold (selectivity level F))”. For the same molecule, the IC50 on His-PKC-theta was in the range of 100 to 800 nM.
Take `CC1(C)[C@@H](O)CCC[C@H]1Nc1nc(NCCC2C(=O)Nc3ccccc32)ncc1C#N` (some centres unmarked) [Cmpd 308]: at PKC delta, the “Sel. Level (ratio of IC50 PKC-delta/IC50 PKC-theta)” value is “H (selectivity level of 5-fold or less (selectivity level H))”. Further, at His-PKC-theta, the IC50 lay within 100 to 800 nM.
`CC1(C)C[C@H](Nc2nc(NCCc3ccncc3)ncc2C#N)CC[C@@H]1O` [Cmpd 280]: the “Sel. Level (ratio of IC50 PKC-delta/IC50 PKC-theta)” value at PKC delta was “G (selectivity between 5- and 20-fold (selectivity level G))”. Besides, on His-PKC-theta, the IC50 fell in the range of 100 to 800 nM.
As for `CC1(C)[C@H](Nc2nc(NCc3cncnc3OCC(F)F)ncc2C#N)C[C@]1(C)O` [Cmpd 332], on PKC delta, the “Sel. Level (ratio of IC50 PKC-delta/IC50 PKC-theta)” value is reported as “E (selectivity (Sel. Level=ratio of IC50 PKC-delta/IC50 PKC-theta) of >100-fold (selectivity level E))”. For the same molecule, the IC50 on His-PKC-theta is under 100 nM.
As to `CC1(C)C[C@H](Nc2nc(NCCn3ccnc3)ncc2C#N)CC[C@@H]1O` [Cmpd 221], the “Sel. Level (ratio of IC50 PKC-delta/IC50 PKC-theta)” value on PKC delta is recorded as “H (selectivity level of 5-fold or less (selectivity level H))”. The IC50 at His-PKC-theta lay in the range of 2000 to 10000 nM.
For `Cc1cc2ccccc2n1CCNc1ncc(C#N)c(N[C@@H]2C[C@H](O)C2(C)C)n1` [Cmpd 243], the “Sel. Level (ratio of IC50 PKC-delta/IC50 PKC-theta)” value at PKC delta is “G (selectivity between 5- and 20-fold (selectivity level G))”. Besides, at His-PKC-theta, the IC50 is 800 to 2000 nM.
For the molecule `CC1(C)C[C@H](Nc2nc(NCCc3ccon3)ncc2C#N)CC[C@@H]1O` [Cmpd 220], the “Sel. Level (ratio of IC50 PKC-delta/IC50 PKC-theta)” value on PKC delta is “G (selectivity between 5- and 20-fold (selectivity level G))”. Also, at His-PKC-theta, the IC50 was in the range of 800 to 2000 nM.
Take `CC1(C)[C@@H](O)C[C@H]1Nc1nc(NCCc2ccon2)ncc1C#N` [Cmpd 228]: on PKC delta, the “Sel. Level (ratio of IC50 PKC-delta/IC50 PKC-theta)” value is “G (selectivity between 5- and 20-fold (selectivity level G))”. On His-PKC-theta, the IC50 lay within 800 to 2000 nM.
As for `Cc1cccnc1CCNc1ncc(C#N)c(NC2C[C@H](O)C2(C)C)n1` (some centres unmarked) [Cmpd 224], the “Sel. Level (ratio of IC50 PKC-delta/IC50 PKC-theta)” value at PKC delta is reported as “H (selectivity level of 5-fold or less (selectivity level H))”. The IC50 on His-PKC-theta lay within 2000 to 10000 nM.
On the same counts, the results for `CC1(C)[C@@H](O)C[C@H]1Nc1nc(NCCn2ccc3ccccc32)ncc1C#N` [Cmpd 239] are “H (selectivity level of 5-fold or less (selectivity level H))” and 2000 to 10000 nM.
For `CC1(C)[C@@H](O)C[C@H]1Nc1nc(NCCc2cncc(C(F)(F)F)c2)ncc1C#N` [Cmpd 274], on PKC delta, the “Sel. Level (ratio of IC50 PKC-delta/IC50 PKC-theta)” value is “G (selectivity between 5- and 20-fold (selectivity level G))”. For the same molecule, the IC50 on His-PKC-theta was 800 to 2000 nM.
Take `CC1(C)[C@@H](O)C[C@H]1Nc1nc(NCCc2ccnc(C(F)(F)F)c2)ncc1C#N` [Cmpd 273]: on PKC delta, the “Sel. Level (ratio of IC50 PKC-delta/IC50 PKC-theta)” value is “G (selectivity between 5- and 20-fold (selectivity level G))”. Moreover, at His-PKC-theta, the IC50 was in the range of 800 to 2000 nM.
`CC1(C)[C@H](O)CCC[C@H]1Nc1nc(NCCC2C(=O)Nc3cc(F)ccc32)ncc1C#N` (some centres unmarked) [Cmpd 310]: the “Sel. Level (ratio of IC50 PKC-delta/IC50 PKC-theta)” value on PKC delta was “H (selectivity level of 5-fold or less (selectivity level H))”. For the same molecule, at His-PKC-theta, the IC50 lay within 800 to 2000 nM.
As to `CC1(C)C[C@H](Nc2nc(NCCc3cn[nH]c3)ncc2C#N)CC[C@@H]1O` [Cmpd 208], the “Sel. Level (ratio of IC50 PKC-delta/IC50 PKC-theta)” value on PKC delta is “G (selectivity between 5- and 20-fold (selectivity level G))”. The IC50 at His-PKC-theta lay in the range of 100 to 800 nM.

For the origin of these results see patent publication US9783505B2, “Substituted diaminopyrimidyl compounds, compositions thereof, and methods of treatment therewith” (Signal Pharmaceuticals, LLC, priority 2013, dated 2017).
